One may read the half-life as the time needed for the level to fall by half in the phase considered. A low value points to fast loss. As a reminder, the Tmax is the time from dosing to the highest level. As usually defined, the inhibition is the change of the read-out against control, counted positive when it falls.

The text below walks through data of patent US7326721B2 (Hypnion, Inc., priority 2003, dated 2008).

Several values for one entry are separate records, joined by “and”; a condition that tells them apart may be missing. Equal values may be shown once.

The test system of one series is Crl:CD-I(ICR)BR mice. As to the kind of experiment: Acetic acid-induced abdominal spasm test in the mouse. The series is classed as in vivo. The conditions noted are these: for Number of abdominal spasms recorded in a 25-minute period: oral. On the procedure:
The objective of this example was to determine the analgesic activity of HY-2901 (Also referred to herein as Compound 49a) following oral administration. Analgesic activity was assessed abdominal spasm test in the rat and mouse. Analgesic activity is also assessed using the tail clip test in the mouse, tail flick test in the rat, Randall-Selitto test in the rat and comparisons are made with a vehicle control group. Reference compounds ASA (acetylsalicylic acid) and morphine are also included for comparison.
The tail clip and tail flick test provide useful information about the central analgesic activity of the test article. The Randall-Selitto test provides information on the compound's ability to modify a hyperalgesic state and the abdominal spasm test provides information on the peripheral analgesic activity of the test article. The test article is administered by oral gavage, this being the intended clinical route of administration. The dose levels employed are expected to encompass the efficacy dose and provide an adequate safety margin.
All formulations were prepared on each day of dosing. The test article (HY-2901) was formulated in 0.25% (w/v) MC at the highest concentration required. Lower doses were obtained by serial dilution of the highest concentration using 0.25% (w/v) MC. The reference compound, acetylsalicylic acid, was formulated in 0.25% (w/v) MC at the required concentrations. Brewer's yeast was formulated in water for injection at the required concentration. Acetic acid was diluted with water for injection to provide the required concentration for administration.
An adequate number of male Crl:CD-I(ICR)BR mice and Wistar rats were obtained from Charles River (UK) Ltd., Margate, Kent. The mice were approximately 4 weeks of age and weigh between 18 and 22 g on arrival. The rats were approximately 5 weeks of age and weigh between 150 and 170 g on arrival. The age and weight of the animals at the start of the study was documented in the raw data and final report,
Each animal received a single administration of vehicle, test article or reference compound by oral gavage, using a constant dose volume 10 mL/kg. Individual dose volumes were based on individual body weights obtained on the day of dosing.
Forty-five minutes following oral administration each animal received a 0.25 mL intraperitoneal injection of 0.5% acetic acid. Animals were immediately placed into individual observation chambers and the number of abdominal spasms elicited over the subsequent 25-minute period was recorded.

Series [1] in a line: Plasma pharmacokinetics in cynomolgus monkeys. The series is classed as in vivo. The settings on record: cynomolgus monkey, 3 mg/kg. The source says:
The following pharmacokinetic parameters are computed from the individual plasma concentrations of the modified antihistamine compound using a noncompartmental approach and appropriate validated pharmacokinetic software (e.g., WinNonlin Professional). Concentration values reported as BLQ are set to zero. If concentration data are available, interim calculations are done (non-QC.d data) between periods if possible.
Dose proportionality following study medication is explored by analyzing natural log-transformed pharmacokinetic variables AUC(0-t), AUC(0-inf), and Cmax with a linear model including the natural log-transformed dose as covariates. […] The following parameters were estimated: • Cmax Maximum plasma concentration. • Tmax Time to maximum concentration. • Cmax and Tmax were reported directly from the concentration-time data. • AUC0-T Area under the plasma concentration-time curve from time […] to the last time point with measurable concentrations, estimated bylinear trapezoidal rule. • AUC0-00 Area under the plasma concentration-time curve extrapolated to infinity, calculated using the formula: AUC0-00=AUC0-1+C0/λ0 • Where Ct is the last measurable concentration in plasma and λz is the terminal phase elimination rate constant estimated using log-linear regression during the terminal elimination phase. […]

A further series concerns the target Angiotensin II, AT2 (Homo sapiens, UniProt P50052). The series is described as follows: Table 12 panel: Angiotensin II, AT2. The settings on record: 1.0E−6, average N=2, read-out: percentage inhibition of specific binding. From the text: (§1) The percentage inhibition (average; N=2) for these receptors is shown below in Table 12.
(§2) Values in Table 12 are expressed as percentage inhibition of specific binding, and these values represent the average of replicate tubes at each of the concentrations tested.

In another series the target is hERG (Homo sapiens, UniProt Q12809). As to the kind of experiment: Table 12 panel: hERG binding. Also on record: expressed in transfected cells. The conditions noted are these: human recombinant hERG potassium channel (binding assay), I[Kr] (hERG) (hr), 1.0E−6, average N=2, read-out: percentage inhibition of specific binding.
Sequence of hERG (Q12809 whole entry): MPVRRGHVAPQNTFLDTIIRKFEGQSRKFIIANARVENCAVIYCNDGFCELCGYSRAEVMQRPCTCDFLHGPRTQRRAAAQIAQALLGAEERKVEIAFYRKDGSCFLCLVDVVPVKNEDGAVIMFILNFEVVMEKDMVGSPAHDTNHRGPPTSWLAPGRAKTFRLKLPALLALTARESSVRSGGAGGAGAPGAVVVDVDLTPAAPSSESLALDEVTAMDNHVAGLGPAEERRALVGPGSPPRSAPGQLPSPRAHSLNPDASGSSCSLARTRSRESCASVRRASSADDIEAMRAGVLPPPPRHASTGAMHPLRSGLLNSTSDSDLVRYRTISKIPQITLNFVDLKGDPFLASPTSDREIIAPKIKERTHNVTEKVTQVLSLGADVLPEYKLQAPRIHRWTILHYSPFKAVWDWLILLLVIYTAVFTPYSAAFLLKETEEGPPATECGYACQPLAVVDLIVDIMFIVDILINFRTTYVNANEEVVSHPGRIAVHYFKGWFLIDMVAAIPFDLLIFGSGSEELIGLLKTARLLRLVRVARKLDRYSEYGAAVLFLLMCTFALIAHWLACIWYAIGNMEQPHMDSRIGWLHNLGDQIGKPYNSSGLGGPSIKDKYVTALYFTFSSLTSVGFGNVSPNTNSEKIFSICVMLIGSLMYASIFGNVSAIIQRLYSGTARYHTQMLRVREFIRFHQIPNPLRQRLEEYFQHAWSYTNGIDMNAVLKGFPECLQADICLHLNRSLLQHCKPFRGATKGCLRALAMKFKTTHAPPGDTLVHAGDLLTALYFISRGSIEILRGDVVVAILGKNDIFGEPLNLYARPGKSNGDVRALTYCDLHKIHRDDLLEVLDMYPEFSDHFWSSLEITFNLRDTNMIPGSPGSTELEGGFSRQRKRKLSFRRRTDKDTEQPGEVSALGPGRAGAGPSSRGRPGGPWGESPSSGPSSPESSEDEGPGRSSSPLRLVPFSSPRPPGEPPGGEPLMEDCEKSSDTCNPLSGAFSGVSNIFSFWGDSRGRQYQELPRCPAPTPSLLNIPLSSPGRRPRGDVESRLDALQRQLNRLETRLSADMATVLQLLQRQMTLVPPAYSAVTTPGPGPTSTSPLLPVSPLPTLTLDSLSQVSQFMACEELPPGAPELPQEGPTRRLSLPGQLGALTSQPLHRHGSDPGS
From the text: as §1, §2
A general note: hERG is a cardiac potassium channel; its block is linked to QT prolongation.

Series [2] concerns Potassium Channel, Ca2+ Act., VI. As to the kind of experiment: Table 12 panel: Potassium Channel, Ca2+ Act. Type of series: binding. The settings on record: 1.0E−6, average N=2.
From the text: as §1, §2

In series [3] the test system is Calcium Channel, Type L (Dihydropyridine Site). As to the kind of experiment: Table 12 panel: Calcium Channel, Type L. Type of series: binding. The settings on record: 1.0E−6, average N=2.
From the text: as §1, §2

The test system of the next series is Dopamine, Non-selective. The series is described as follows: Table 12 panel: Dopamine, Non-selective. Type of series: binding. The conditions noted are these: 1.0E−6, average N=2.
From the text: as §1, §2

The next series concerns the target Vasopressin 1 (Homo sapiens, UniProt P37288). As to the kind of experiment: Table 12 panel: Vasopressin 1. The conditions noted are these: 1.0E−6, average N=2, read-out: percentage inhibition of specific binding.
From the text: as §1, §2

Series [4] has as its target GABA A, BDZ, alpha 1 site (Homo sapiens, UniProt P14867+P18507). The series is described as follows: Table 12 panel: GABA A, BDZ. The conditions noted are these: 1.0E−6, average N=2, read-out: percentage inhibition of specific binding.
From the text: as §1, §2

In a further series the target is Oxytocin (Homo sapiens, UniProt P30559). As to the kind of experiment: Table 12 panel: Oxytocin. The settings on record: 1.0E−6, average N=2, read-out: percentage inhibition of specific binding.
Sequence of Oxytocin (P30559 whole entry): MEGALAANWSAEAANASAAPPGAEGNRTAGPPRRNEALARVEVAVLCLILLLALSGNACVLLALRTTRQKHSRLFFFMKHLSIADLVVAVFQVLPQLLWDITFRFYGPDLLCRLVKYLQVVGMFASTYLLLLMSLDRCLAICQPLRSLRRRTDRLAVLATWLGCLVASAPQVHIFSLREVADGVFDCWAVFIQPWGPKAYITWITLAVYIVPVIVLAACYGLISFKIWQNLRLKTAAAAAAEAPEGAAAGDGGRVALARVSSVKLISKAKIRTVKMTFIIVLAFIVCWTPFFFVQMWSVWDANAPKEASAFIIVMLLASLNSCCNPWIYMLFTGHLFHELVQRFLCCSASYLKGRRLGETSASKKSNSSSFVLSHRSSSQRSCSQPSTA
From the text: as §1, §2

The next series has as its target Neurokinin, NK1 (Homo sapiens, UniProt P25103). The series is described as follows: Table 12 panel: NK1. The settings on record: 1.0E−6, average N=2, read-out: percentage inhibition of specific binding.
From the text: as §1, §2

The next series relates to Serotonin, Non-selective. The series is described as follows: Table 12 panel: Serotonin, Non-selective. The conditions noted are these: 1.0E−6, average N=2. The series is classed as binding.
From the text: as §1, §2

The next series deals with Sigma, Non-selective. As to the kind of experiment: Table 12 panel: Sigma. Type of series: binding. The conditions noted are these: 1.0E−6, average N=2.
From the text: as §1, §2

The test system of a further series is Sodium, Site 2. As to the kind of experiment: Table 12 panel: Sodium, Site 2. Type of series: binding. The conditions noted are these: 1.0E−6, average N=2.
From the text: as §1, §2

Series [5] relates to Glutamate, NMDA Agonist Site. As to the kind of experiment: Table 12 panel: Glutamate, NMDA Agonist. The series is classed as binding. The settings on record: 1.0E−6, average N=2.
From the text: as §1, §2

The target of the next series is T1, Orphenin (hr) (Homo sapiens, UniProt P41146).
T1 construct: expressed in transfected cells
T1 sequence (P41146 whole entry): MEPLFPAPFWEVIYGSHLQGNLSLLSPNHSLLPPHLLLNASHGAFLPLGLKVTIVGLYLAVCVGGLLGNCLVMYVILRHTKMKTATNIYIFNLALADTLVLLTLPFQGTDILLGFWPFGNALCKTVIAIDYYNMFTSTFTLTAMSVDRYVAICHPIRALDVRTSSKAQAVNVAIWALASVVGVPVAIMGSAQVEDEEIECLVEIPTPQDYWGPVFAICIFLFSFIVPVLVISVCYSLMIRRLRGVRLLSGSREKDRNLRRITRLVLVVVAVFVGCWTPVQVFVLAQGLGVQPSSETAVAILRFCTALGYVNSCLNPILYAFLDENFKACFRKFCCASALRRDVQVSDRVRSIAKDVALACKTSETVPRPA
As to the kind of experiment: Table 12 panel: Orphenin. The conditions noted are these: 1.0E−6, average N=2, read-out: percentage inhibition of specific binding.
From the text: as §1, §2

Sequence of Angiotensin II, AT2 (P50052 whole entry): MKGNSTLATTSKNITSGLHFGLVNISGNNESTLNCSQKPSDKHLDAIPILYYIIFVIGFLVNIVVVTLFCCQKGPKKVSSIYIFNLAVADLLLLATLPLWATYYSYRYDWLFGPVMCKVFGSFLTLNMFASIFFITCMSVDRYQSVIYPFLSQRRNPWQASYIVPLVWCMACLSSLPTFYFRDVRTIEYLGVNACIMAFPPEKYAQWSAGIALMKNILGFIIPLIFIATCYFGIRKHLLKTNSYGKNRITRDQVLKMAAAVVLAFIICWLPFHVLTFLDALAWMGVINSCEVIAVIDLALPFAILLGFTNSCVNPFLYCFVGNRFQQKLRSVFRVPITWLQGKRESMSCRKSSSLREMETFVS
Sequence of Vasopressin 1 (P37288 whole entry): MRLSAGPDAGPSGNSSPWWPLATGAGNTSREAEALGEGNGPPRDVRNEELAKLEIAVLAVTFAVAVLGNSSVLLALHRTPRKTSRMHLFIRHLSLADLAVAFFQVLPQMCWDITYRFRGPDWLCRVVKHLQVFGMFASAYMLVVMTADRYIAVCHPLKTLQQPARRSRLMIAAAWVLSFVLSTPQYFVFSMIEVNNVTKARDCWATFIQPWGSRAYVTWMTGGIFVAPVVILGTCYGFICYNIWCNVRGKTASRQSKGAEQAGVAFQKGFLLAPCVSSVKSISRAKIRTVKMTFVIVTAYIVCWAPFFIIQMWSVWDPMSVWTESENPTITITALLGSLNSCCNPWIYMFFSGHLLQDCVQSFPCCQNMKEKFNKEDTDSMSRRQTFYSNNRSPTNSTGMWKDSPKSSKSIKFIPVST
Sequence of Neurokinin, NK1 (P25103 whole entry): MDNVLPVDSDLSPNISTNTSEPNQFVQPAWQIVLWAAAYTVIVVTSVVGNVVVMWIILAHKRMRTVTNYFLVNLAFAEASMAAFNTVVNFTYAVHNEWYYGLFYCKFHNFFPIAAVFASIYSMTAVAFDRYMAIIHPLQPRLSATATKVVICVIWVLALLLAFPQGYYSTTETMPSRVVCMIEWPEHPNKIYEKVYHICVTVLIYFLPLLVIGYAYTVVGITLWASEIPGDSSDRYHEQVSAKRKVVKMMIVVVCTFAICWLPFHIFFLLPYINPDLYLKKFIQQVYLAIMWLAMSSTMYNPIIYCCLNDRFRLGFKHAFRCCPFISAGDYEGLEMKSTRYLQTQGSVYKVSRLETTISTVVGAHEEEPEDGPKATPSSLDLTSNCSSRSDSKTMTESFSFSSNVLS
Sequence of GABA A, BDZ, alpha 1 site (P14867 28-456): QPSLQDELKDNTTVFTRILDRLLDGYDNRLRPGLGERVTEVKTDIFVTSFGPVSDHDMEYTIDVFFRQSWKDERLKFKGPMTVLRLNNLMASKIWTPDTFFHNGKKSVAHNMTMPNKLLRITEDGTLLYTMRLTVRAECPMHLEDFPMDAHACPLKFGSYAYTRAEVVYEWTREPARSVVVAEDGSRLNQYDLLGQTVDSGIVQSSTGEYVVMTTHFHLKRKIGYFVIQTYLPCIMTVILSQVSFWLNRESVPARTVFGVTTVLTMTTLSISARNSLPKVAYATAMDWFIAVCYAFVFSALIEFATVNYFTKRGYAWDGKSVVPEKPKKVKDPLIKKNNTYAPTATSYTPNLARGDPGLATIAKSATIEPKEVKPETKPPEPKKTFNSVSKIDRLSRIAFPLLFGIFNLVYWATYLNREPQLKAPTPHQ
Sequence of GABA A, BDZ, alpha 1 site (P18507 40-467 limits assumed): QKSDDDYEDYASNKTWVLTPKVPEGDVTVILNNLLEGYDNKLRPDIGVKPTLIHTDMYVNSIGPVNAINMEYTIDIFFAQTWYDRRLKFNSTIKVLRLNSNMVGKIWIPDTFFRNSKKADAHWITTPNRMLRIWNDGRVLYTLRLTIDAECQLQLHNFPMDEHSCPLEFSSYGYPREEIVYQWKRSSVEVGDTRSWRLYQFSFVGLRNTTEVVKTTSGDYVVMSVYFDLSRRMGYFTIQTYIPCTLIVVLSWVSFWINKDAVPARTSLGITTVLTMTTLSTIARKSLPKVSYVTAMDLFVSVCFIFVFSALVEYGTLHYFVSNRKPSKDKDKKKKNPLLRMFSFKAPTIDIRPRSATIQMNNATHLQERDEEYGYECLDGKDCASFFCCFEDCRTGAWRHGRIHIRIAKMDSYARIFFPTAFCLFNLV
Sequence of GABA A, BDZ, alpha 1 site (P47870 25-512 partner limits assumed): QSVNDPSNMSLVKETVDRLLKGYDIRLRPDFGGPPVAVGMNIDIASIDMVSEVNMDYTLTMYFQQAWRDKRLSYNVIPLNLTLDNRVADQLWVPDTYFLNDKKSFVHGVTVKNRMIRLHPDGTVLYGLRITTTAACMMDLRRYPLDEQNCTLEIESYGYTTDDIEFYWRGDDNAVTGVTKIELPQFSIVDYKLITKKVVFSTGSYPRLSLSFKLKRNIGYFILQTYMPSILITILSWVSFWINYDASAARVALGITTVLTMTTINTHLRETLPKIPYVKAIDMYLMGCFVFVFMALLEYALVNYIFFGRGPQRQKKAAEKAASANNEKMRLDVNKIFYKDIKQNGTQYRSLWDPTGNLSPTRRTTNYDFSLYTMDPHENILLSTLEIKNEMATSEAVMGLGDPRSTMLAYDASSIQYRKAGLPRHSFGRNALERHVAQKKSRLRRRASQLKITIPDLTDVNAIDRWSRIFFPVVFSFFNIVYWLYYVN

As to `CC(C)(CN1CCC(=C2c3ccc(F)cc3COc3ccccc32)CC1)C(=O)O` [Compound 49a], the “Group mean (±sd) number of abdominal spasms recorded in a 25 minute period” value is given as 6 ± 6.2 in the series with Crl:CD-I(ICR)BR mice (oral 3 mg/kg), 1 ± 2.0 with Crl:CD-I(ICR)BR mice (oral 10 mg/kg) and 0 ± 0.0 in the series on Crl:CD-I(ICR)BR mice (oral 30 mg/kg). Besides, the “Number of abdominal spasms recorded in a 25-minute period” value in the series on Crl:CD-I(ICR)BR mice (3 mg/kg, individual animal data (animals 7-12), listed as HY-2901, 3 mg/kg) was 0 (2×) and 1 and 10 and 7 and 15; in the series with Crl:CD-I(ICR)BR mice (10 mg/kg, individual animal data (animals 13-18), listed as HY-2901, 10 mg/kg) it was 0 (4×) and 2 and 5; with Crl:CD-I(ICR)BR mice (30 mg/kg, individual animal data (animals 19-24)) it was 0. Moreover, in series [1], the half-life was 4.4 h. In addition, the Tmax in series [1] (after oral administration) amounted to 1.5 h.
In the case of `CC(CC(=O)O)N1CCC(=C2c3ccc(F)cc3COc3ccccc32)CC1` (stereo not shown) [Compound 37], the inhibition at 1 µM on Angiotensin II, AT2 is 1.51%; at hERG, -5.23%; on Vasopressin 1, 11.6%; in series [4], -7.13%; on Oxytocin, -5.82%; at Neurokinin, NK1, 10.3%. Also, on Orphenin (hr), the inhibition at 1 µM stood at 3.53%. For the same compound, the “percentage inhibition of specific binding” value is on record as −12.71% ^ in series [2]; 5.82% in [3]; 21.10% with Dopamine, Non-selective; 21.45% with Serotonin, Non-selective; 13.27% in the series with Sigma, Non-selective; −4.12% in the series on Sodium, Site 2. In series [5], the “percentage inhibition of specific binding” value is listed as −5.56%.
